Earlier results in patent US20070224637A1, “Oxidative protection of lipid layer biosensors” (priority 2006, published 2007).

Molecule | Solubility In oil | Solubility In alcohol | Solubility In water
Tocopherols | Yes |  | 
O=S([O-])[O-].[Ca+2] [Calcium sulfite] |  | Yes | Yes
N[C@@H](CS)C(=O)O [Cysteine] | No | Yes | Yes
O=S([O-])O.[Na+] [Sodium bisulfite] | No |  | Yes
O=[PH2]O [Hypophosphorus acid] |  |  | Yes
O=S=O [Sulfur dioxide] | Yes | Yes | Yes
OC[C@@H](O)[C@@H](O)[C@H](O)[C@@H](O)CS [Thiosorbitol] | Yes | Yes | Yes
CCCCCCCCOC(=O)c1cc(O)c(O)c(O)c1 [Octyl gallate] | Yes | Yes | No
CCCOC(=O)c1cc(O)c(O)c(O)c1 [Propyl gallate] | Slightly | Yes | Slightly
CCOC(=O)c1cc(O)c(O)c(O)c1 [Ethyl gallate] | No | Yes | Slightly
O=S([O-])[O-].[Na+].[Na+] [Sodium sulfite] |  | No | Yes
CCCCCCCCCCCCOC(=O)c1cc(O)c(O)c(O)c1 [Dodecyl gallate] | Yes | Yes | No
D-tocopherol [D-tocopherol (syn)] | Yes | Yes | No
N[C@@H](CCC(=O)N[C@@H](CS)C(=O)NCC(=O)O)C(=O)O [Glutathione] |  |  | Yes
Cc1cc(C(C)(C)C)c(O)c(C(C)(C)C)c1 [Butylated hydroxytoluene] | Yes | Yes | No
O=C(O)c1cc(O)c(O)c(O)c1 [Gallic acid] | Yes | Yes | Yes
CC(Cc1ccc(O)c(O)c1)C(C)Cc1ccc(O)c(O)c1 (stereo not shown) [Nordihydroguaiaretic acid] | Yes | Yes | No

Molecule | Solubility In oil | Solubility In alcohol | Solubility In water
Cc1c(O)cc2c(c1C)O[C@](C)(CCC[C@H](C)CCC[C@H](C)CCCC(C)C)CC2 [γ-tocopherol (syn), γ-tocopherol] | Yes | Yes | No
Oc1ccc(O)cc1 [Hydroquinone] | Yes | Yes | Yes
Cc1cc2c(C(C)C)c(O)c(O)c(C=O)c2c(O)c1-c1c(C)cc2c(C(C)C)c(O)c(O)c(C=O)c2c1O [Gossypol] | Yes | Yes | No
CC(=O)N[C@@H](CS)C(=O)O [Acetylcysteine] | No | Yes | Yes
O=S([O-])O.O=S([O-])O.[Ca+2] [Calcium bisulfite] |  |  | Yes
O[C@H](CS)[C@H](O)CS (racemic) [Dithiothreitol] | No | Yes | Yes
O=S([O-])S(=O)(=O)[O-].[Na+].[Na+] [Sodium metabisulfite] |  | Slightly | Yes
CCCCCCCCCCCCCCCC(=O)OC[C@H](O)[C@H]1OC(=O)C(O)=C1O [Ascorbyl palmitate] | Yes | Yes | Yes
COc1ccc(O)c(C(C)(C)C)c1 [Butylated hydroxyanisole] | Yes | Yes | No
CC(C)(C)c1cc(CO)cc(C(C)(C)C)c1O [4-Hydroxymethyl-2,6-di-tert-butylphenol] | Yes | Yes | Yes
OCC(O)CS (stereo not shown) [Monothioglycerol] |  | Yes | Yes
O=S([O-])S(=O)(=O)[O-].[K+].[K+] [Potassium metabisulfite] | No | No | Yes
CCOc1ccc2c(c1)C(C)=CC(C)(C)N2 [Ethoxyquin] | Yes |  | 
O=C(OC[C@H]1O[C@@H](OC(=O)c2cc(O)c(O)c(OC(=O)c3cc(O)c(O)c(O)c3)c2)[C@H](OC(=O)c2cc(O)c(O)c(OC(=O)c3cc(O)c(O)c(O)c3)c2)[C@@H](OC(=O)c2cc(O)c(O)c(OC(=O)c3cc(O)c(O)c(O)c3)c2)[C@@H]1OC(=O)c1cc(O)c(O)c(OC(=O)c2cc(O)c(O)c(O)c2)c1)c1cc(O)c(O)c(OC(=O)c2cc(O)c(O)c(O)c2)c1 [Tannic acid] |  |  | Yes
NC(N)=S [Thiourea] | No | Yes | Yes
Cc1c(C)c2c(c(C)c1O)CC[C@@](C)(CCC[C@H](C)CCC[C@H](C)CCCC(C)C)O2 [d-α-tocopherol (syn), d-α-tocopherol] | Yes | Yes | No
